Test results published in patent US10065990B2, “Cyclic peptide compound, and preparation method, pharmaceutical composition and use thereof” (HANGZHOU GUANYU BIO-MEDICAL CO., LTD, priority 2013, dated 2018).
Read-outs that look alike come from different tables or passages of the source.

Experiments:
HDAC1 = HDAC1 (Homo sapiens, UniProt Q13547); assay: HDAC biochemical activity measurement (fluorescent substrate deacetylation);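 also: fluorogenic acetyl-lysine substrate (20 µM) deacetylated by HDAC1, then developer releases fluorophore read at 360 nm excitation and 460 nm emission, inhibitor incubated 30 min at 37 °C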
HDAC2 = HDAC2 (Homo sapiens, UniProt Q92769); assay: as above; conditions: 37° C. 30 minutes;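 also: HDAC2 enzyme with an acetyl-lysine fluorescent substrate, then developer added, fluorescence read at excitation 360 nm and emission 460 nm, inhibition measured across several compound concentrations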
Procedure: The chemical activity of the compound is determined according to the degree of deacetylation inhibition of the HDAC enzyme. This experiment measured the degree of deacetylation related to tumor proliferation and metastasis of HDAC1, HDAC2, HDAC3, HDAC8, HDAC11 five subtypes HDAC enzymes. After the substrate containing an acetylated lysine side chain and HDAC enzyme are labeled with a fluorescent label, the fluorescent substrate is de acetyl. The fluorescent labeled substrate is cleaved by the enzyme, and the fluorescent substance is released, which generates 460 nm emission light under the excitation of 360 nm light.
HDAC substrate was diluted with reaction buffer to 200M (reaction concentration of 20M), the HDAC enzyme was diluted to the appropriate concentration, then added different concentrations of the test compounds and acted at 37° C. 30 minutes, and then added the same volume of 2-times concentration substrate developing solution (developer), incubated at room temperature for 15 minutes.

HDAC7 = molecular target: T1, HDAC7 (Homo sapiens, UniProt Q8WUI4); assay: as above; conditions: HDAC7; 37° C. 30 minutes;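 also: fluorogenic deacetylation assay using acetyl-lysine substrate at 20 µM, enzyme and compound incubated 30 min at 37 °C, then developer added, fluorescence read at 360/460 nm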
T1 sequence (Q8WUI4 1-952): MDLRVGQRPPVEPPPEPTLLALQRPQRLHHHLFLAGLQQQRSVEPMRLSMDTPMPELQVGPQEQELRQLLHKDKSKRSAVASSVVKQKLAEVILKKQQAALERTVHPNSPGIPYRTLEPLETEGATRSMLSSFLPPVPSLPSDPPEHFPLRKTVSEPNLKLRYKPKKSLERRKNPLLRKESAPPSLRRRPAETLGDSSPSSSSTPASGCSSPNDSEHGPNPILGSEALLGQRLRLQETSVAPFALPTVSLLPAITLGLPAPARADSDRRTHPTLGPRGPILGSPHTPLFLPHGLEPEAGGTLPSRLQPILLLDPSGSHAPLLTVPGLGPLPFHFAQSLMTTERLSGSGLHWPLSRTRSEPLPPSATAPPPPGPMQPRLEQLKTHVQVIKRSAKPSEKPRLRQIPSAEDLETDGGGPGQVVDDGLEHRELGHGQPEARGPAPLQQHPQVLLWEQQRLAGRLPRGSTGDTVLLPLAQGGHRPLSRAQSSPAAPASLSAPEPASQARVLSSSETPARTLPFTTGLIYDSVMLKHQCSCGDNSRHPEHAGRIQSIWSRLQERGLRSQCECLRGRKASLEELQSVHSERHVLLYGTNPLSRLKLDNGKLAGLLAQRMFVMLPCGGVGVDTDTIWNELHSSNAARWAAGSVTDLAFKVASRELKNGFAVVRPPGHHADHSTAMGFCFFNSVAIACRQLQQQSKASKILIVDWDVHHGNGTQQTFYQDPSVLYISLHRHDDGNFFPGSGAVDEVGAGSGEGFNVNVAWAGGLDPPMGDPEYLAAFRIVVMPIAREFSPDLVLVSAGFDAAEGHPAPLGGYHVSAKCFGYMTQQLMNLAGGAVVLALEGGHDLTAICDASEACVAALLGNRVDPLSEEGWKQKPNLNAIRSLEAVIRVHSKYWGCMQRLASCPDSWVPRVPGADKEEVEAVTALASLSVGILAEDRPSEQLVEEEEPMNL

[1] = system: A549 (human lung cancer cells); assay: MTT cancer cell growth inhibition; assay type: cell-based; conditions: MTT
Method in brief: (§1)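 Three-day compound exposure (final 10^−5–10^−10 M, three replicate wells) of cells seeded at 1500 per well precedes a 4 h MTT incubation at 37° C. Viability is taken from 570 nm absorbance after DMSO solubilisation, and GI50 calculated from it.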

[2] = system: Huh-7 (human hepatoma cells); assay: MTT cancer cell growth inhibition; assay type: cell-based; conditions: MTT, 72 hours incubation, Huh-7 cells, read-out: GI50 Huh-7
Method in brief: as §1

[3] = system: KBM5-T315I (human chronic myelogenous leukemia); assay: MTT cancer cell growth inhibition; assay type: cell-based; conditions: MTT, 72 hours incubation, KBM5-T315I cells, read-out: GI50 KBM5-T315I
Method in brief: as §1

[4] = system: MCF-7 (human breast cancer cells); assay: MTT cancer cell growth inhibition; assay type: cell-based
Method in brief: as §1

[5] = system: MDA-MB-231 (breast cancer cells); assay: MTT cancer cell growth inhibition; assay type: cell-based
Method in brief: as §1

[6] = system: MOLT-4 (human acute lymphoblastic leukemia cells); assay: MTT cancer cell growth inhibition; assay type: cell-based; conditions: MTT
Method in brief: as §1

[7] = system: PANC-1 (Pac-1, human pancreatic cancer cells); assay: MTT cancer cell growth inhibition; assay type: cell-based; conditions: MTT
Method in brief: as §1

[8] = system: SGC-7901 (human gastric cancer cells); assay: MTT cancer cell growth inhibition; assay type: cell-based; conditions: MTT, 72 hours incubation, SGC-7901 cells, read-out: GI50 SGC-7901
Method in brief: as §1

[9] = system: lncap (prostate cancer cells); assay: MTT cancer cell growth inhibition; assay type: cell-based; conditions: MTT
Method in brief: as §1

HDAC11 = molecular target: T2, HDAC11 (Homo sapiens, UniProt Q96DB2); assay: HDAC biochemical activity measurement (fluorescent substrate deacetylation);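 also: HDAC11 enzyme acting on an acetyl-lysine fluorogenic substrate, then a developer frees the fluorophore, read at excitation 360 nm and emission 460 nm, IC50 over a compound dilution series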
T2 sequence (Q96DB2 1-347): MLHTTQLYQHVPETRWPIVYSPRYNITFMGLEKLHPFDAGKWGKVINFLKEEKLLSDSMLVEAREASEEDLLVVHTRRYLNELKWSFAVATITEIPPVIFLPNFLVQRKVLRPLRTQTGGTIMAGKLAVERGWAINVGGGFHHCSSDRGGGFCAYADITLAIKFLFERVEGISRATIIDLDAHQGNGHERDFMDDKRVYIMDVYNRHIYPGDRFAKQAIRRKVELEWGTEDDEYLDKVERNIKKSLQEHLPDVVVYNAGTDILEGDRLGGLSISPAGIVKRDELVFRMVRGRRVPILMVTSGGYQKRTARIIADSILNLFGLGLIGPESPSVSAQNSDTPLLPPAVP

[10] = HDAC1, 37° C. 30 minutes, read-out: IC50 HDAC1
[11] = Table 2, read-out: IC50 HDAC1, a (compounds of the present invention)
[12] = Homo sapiens, A549, 72 h, 72 hours incubation, read-out: GI50 A54
[13] = Homo sapiens, A549, 72 h, 72 hours, present invention, read-out: GI50 A549, a
[14] = Homo sapiens, MCF7, 72 h, 72 hours incubation, read-out: GI50 MCF
[15] = Homo sapiens, MCF7, 72 h, 72 hours, present invention, read-out: GI50 MCF7, a
[16] = Homo sapiens, MDA-MB-231, 72 h, read-out: GI50 MDA-MB-231, MTT, 72 hours incubation, MDA-MB-231 cells
[17] = Homo sapiens, MOLT-4, 72 h, 72 hours incubation, read-out: GI50 Mol
[18] = Homo sapiens, MOLT-4, 72 h, 72 hours, present invention, read-out: GI50 Molt-4, a
[19] = Homo sapiens, PANC-1, 72 h, 72 hours, present invention, read-out: GI50 PANC-1, a
[20] = Homo sapiens, LNCaP, 72 h, 72 hours, present invention, read-out: GI50 lncap, a
[21] = read-out: IC50 HDAC11, HDAC11, 37° C. 30 minutes
[22] = Homo sapiens, A549, 72 h, A549 cells, 72 hours incubation, read-out: GI50 A54
[23] = Homo sapiens, MCF7, 72 h, MCF-7 cells, 72 hours incubation, read-out: GI50 MCF
[24] = Homo sapiens, PANC-1, 72 h, PANC-1 cells, 72 hours incubation, read-out: GI50 PAN
[25] = Homo sapiens, LNCaP, 72 h, lncap cells, 72 hours incubation, read-out: GI50 lnca
[26] = Homo sapiens, MOLT-4, 72 h, MOLT-4 cells, 72 hours incubation, read-out: GI50 Mol

HDAC1, sequence (Q13547 whole entry, species assumed): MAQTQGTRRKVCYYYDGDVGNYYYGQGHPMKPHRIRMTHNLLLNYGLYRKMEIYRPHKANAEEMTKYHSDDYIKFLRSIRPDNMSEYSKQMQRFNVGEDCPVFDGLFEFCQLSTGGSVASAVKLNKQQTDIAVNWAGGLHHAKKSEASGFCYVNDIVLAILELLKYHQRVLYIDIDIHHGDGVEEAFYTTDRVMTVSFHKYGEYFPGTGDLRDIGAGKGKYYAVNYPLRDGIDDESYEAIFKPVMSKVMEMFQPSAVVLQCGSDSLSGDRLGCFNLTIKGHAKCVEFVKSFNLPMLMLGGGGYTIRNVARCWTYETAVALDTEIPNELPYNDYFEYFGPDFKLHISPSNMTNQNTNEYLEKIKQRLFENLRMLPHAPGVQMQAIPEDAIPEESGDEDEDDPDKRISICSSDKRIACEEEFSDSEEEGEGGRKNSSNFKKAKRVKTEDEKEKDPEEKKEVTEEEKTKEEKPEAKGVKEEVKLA
HDAC2, sequence (Q92769 whole entry, species assumed): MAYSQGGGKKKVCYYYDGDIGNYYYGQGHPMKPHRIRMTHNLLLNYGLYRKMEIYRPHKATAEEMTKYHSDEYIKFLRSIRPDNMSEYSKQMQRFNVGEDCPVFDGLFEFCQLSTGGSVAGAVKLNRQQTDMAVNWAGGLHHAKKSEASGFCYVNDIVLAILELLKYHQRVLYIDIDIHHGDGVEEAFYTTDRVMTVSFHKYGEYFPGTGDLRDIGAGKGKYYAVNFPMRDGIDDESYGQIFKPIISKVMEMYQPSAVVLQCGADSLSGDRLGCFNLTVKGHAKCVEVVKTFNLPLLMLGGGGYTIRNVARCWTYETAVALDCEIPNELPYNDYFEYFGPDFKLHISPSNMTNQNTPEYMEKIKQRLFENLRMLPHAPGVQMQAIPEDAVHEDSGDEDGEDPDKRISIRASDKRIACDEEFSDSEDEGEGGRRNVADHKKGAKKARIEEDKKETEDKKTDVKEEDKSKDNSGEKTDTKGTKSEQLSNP

SMILES | IC50 (HDAC1; [10]) [nM] | IC50 (HDAC1; [11]) [nM] | IC50 (HDAC2) [nM] | IC50 HDAC7 (HDAC7) | GI50 [1, 12] [nM] | GI50 [1, 13] [nM] | GI50 ([2]; Homo sapiens, Huh-7, 72 h) [nM] | GI50 ([3]; Homo sapiens, 72 h) [nM] | GI50 [4, 14] [nM] | GI50 [4, 15] [nM] | GI50 [5, 16] [nM] | GI50 [6, 18] [nM] | GI50 [7, 19] [nM] | GI50 ([8]; Homo sapiens, SGC-7901, 72 h) [nM] | GI50 [9, 20] [nM] | IC50 (HDAC11; [21]) [nM] | GI50 [1, 22] [nM] | GI50 [4, 23] [nM] | GI50 [7, 24] [nM] | GI50 [9, 25] [nM] | also measured
C/C=C1\NC(=O)c2cccc(n2)CNC(=O)C[C@@H](/C=C/CCSC(C)=O)OC(=O)[C@H](C(C)C)NC1=O [Compound 7] | 87 | < 500 | 17 | no activity | 50 | 52 | 46 | 52 | 30 | 30 | 91 | 21 | 5 | 35 | 3 | 11 |  |  |  |  | IC50 (HDAC1; Table 3, read-out: IC50 HDAC1, D (non-substituent)): 87 nM; GI50 [6, 17]: 20 nM
C/C=C1\NC(=O)c2cccc(n2)CNC(=O)C[C@@H](/C=C/CCSC(=O)CCCCCCC)OC(=O)[C@H](Cc2cccc3ccccc23)NC1=O [Compound 239] | 77 | < 100 | 56 | no activity |  | 12 | 51 | 23 |  | 19 | 25 | 4 | 130 | 35 | 17 | 28 | 10 | 10 | 130 | 10 | 
C/C=C1\NC(=O)c2cccc(n2)CNC(=O)C[C@@H](/C=C/CCSC(=O)CCCCCCC)OC(=O)[C@H](C(C)(C)C)NC1=O [Compound 237] | 72 | < 80 | 32 | no activity |  | 420 | 49 | 87 |  | 350 | 12 | 970 | 930 | 33 | 940 | 77 | 420 | 350 | 930 | 940 | GI50 [6, 26]: 970 nM
C/C=C1\NC(=O)c2nc(ccc2F)CNC(=O)C[C@@H](/C=C/CCSC=O)OC(=O)[C@H](C(C)C)NC1=O [Example 51] | 46 |  | 52 | no activity | 40 |  | 29 | 77 | 70 |  | 29 |  |  | 45 |  |  |  |  |  |  | GI50 [6, 17]: 20 nM; GI50 ([7]; Homo sapiens, PANC-1, 72 h, 72 hours incubation, read-out: GI50 PAN): 70 nM; GI50 ([9]; Homo sapiens, LNCaP, 72 h, 72 hours incubation, read-out: GI50 lnca): 20 nM; IC50 (HDAC11): 103 nM
C/C=C1\NC(=O)c2nc(F)cc(n2)CNC(=O)C[C@@H](/C=C/CCSC(C)=O)OC(=O)[C@H](C(C)C)NC1=O [Compound 98] | 61 |  | 19 | no activity |  |  |  |  |  |  |  |  |  |  |  | 89 |  |  |  |  | GI50 ([1]; 72 hours incubation, read-out: GI50 A54): 600 nM; GI50 [2]: 28 nM; GI50 [3]: 58 nM; GI50 ([4]; 72 hours incubation, read-out: GI50 MCF): 30 nM; GI50 ([5]; read-out: GI50 MDA-MB-231, MTT, 72 hours incubation, MDA-MB-231 cells): 37 nM; GI50 ([6]; 72 hours incubation, read-out: GI50 Mol): 20 nM; GI50 ([7]; 72 hours incubation, read-out: GI50 PAN): 80 nM; GI50 [8]: 36 nM; GI50 ([9]; 72 hours incubation, read-out: GI50 lnca): 20 nM
C/C=C1\NC(=O)c2nc(ccc2SC)CNC(=O)C[C@@H](/C=C/CCSC(=O)CCCCCCC)OC(=O)[C@H](CC)NC1=O [Compound 171] | 68 |  | 35 | no activity |  |  | 53 | 68 |  |  | 65 |  |  | 28 |  |  | 50 | 10 | 10 | 50 | GI50 [6, 26]: 20 nM; IC50 (HDAC11): 95 nM
